Molecules are shown by their SMILES.

The target of this assay is T1, EGFR (ErbB1) T790M L858R (Homo sapiens, UniProt P00533, L858R/T790M).
T1 construct: purchased Thermo Fisher Scientific (Life Technologies) SelectScreen
Put plainly: SelectScreen Z'LYTE. The class given is biochemical. The gist of the method: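 Percent values come from Thermo SelectScreen profiling of NU5455, combining activity and binding assays. CSF1R was run in Z'LYTE format at Km app ATP, and CAMK1 in Adapta format with ATP listed at 10.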

T1 sequence (P00533 25-1210 T790M/L858R): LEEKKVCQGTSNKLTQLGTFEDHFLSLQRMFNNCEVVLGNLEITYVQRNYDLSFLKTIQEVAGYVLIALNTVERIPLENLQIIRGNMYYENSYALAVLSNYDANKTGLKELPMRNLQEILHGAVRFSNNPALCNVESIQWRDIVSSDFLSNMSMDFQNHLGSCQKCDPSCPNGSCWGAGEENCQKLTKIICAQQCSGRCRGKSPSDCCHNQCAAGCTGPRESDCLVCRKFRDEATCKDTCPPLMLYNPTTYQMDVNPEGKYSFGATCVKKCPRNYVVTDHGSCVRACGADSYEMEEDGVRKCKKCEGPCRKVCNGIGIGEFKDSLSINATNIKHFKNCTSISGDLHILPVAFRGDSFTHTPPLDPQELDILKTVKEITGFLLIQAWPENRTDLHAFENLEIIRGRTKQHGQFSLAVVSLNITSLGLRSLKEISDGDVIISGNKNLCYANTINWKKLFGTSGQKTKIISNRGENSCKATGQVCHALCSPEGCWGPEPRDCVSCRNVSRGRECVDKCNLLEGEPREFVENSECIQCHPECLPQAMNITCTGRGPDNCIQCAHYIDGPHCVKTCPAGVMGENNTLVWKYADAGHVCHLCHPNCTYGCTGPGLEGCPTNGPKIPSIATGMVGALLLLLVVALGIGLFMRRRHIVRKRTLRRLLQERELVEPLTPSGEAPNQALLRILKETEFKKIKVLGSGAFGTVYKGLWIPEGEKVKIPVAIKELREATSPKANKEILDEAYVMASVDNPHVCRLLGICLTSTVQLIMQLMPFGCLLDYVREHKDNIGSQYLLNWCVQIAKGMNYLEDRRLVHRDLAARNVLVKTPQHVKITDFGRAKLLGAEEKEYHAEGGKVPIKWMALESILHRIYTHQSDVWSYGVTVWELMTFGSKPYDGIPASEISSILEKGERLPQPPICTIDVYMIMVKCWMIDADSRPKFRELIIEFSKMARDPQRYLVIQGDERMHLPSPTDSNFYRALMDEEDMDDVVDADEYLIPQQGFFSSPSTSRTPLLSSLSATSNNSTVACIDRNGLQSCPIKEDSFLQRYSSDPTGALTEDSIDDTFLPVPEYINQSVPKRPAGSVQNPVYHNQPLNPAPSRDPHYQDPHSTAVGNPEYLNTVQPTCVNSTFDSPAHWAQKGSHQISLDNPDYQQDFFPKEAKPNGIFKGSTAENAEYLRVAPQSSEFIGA

Usually inhibition stands for the drop in the measured response relative to a control, in per cent. For `CN(C(=O)CN1CCOCC1)c1ccc2sc3c(-c4cccc5c(=O)cc(N6CC7CCC(C6)O7)oc45)cccc3c2c1` [NU5455], the inhibition at 1 µM is -14.1%.

The record behind these values is publication PMC6934184, “Selective DNA-PKcs inhibition extends the therapeutic index of localized radiotherapy and chemotherapy” (The Journal of Clinical Investigation, 2019).
